One experiment concerns the target human TLR9 (Homo sapiens (Human), UniProt Q9NR96). Description: TLR9 inhibition reporter assay (HEK-Blue cells, SEAP reporter, ODN2006 stimulation).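 Note: compounds tested over 0.05 nM to 50 µM, 22 h incubation, inhibition taken as SEAP signal drop from agonist plus DMSO wells toward a known inhibitor control.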
The next experiment has as its target human TLR8 (Homo sapiens (Human), UniProt Q9NR97). Description: TLR8 inhibition reporter assay (HEK-Blue cells, SEAP reporter, R848 stimulation).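 Note: compounds tested from 0.05 nM to 50 µM, 22 h at 37 °C, SEAP measured with HEK-Blue Detection, inhibition relative to agonist plus DMSO versus a known inhibitor.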
Another experiment has as its target human TLR7 (Homo sapiens (Human), UniProt Q9NYK1). Briefly: TLR7 inhibition reporter assay (HEK-Blue cells, SEAP reporter, gardiquimod stimulation). The experiment is classed as cell-based. Background: Reporter assays use an easily measured gene product as a stand-in for the process of interest.
Setting [1] is: read-out: TLR9 IC50, HEK-Blue cells overexpressing human TLR9, ODN2006 5 nM.
The mark [2] stands for this setting: read-out: TLR8 IC50, HEK-Blue cells overexpressing human TLR8, R848 15.9 μM.
[3] abbreviates: HEK-Blue cells overexpressing human TLR7, gardiquimod 7.5 μM.

These results are taken from patent publication US10660877B2 (BRISTOL-MYERS SQUIBB COMPANY, priority 2016, dated 2020).

Structures are written as SMILES. pIC50: −log10 of the molar value. Like-named read-outs stand apart in the source and are kept apart here.

human TLR7, sequence (Q9NYK1 27-1049): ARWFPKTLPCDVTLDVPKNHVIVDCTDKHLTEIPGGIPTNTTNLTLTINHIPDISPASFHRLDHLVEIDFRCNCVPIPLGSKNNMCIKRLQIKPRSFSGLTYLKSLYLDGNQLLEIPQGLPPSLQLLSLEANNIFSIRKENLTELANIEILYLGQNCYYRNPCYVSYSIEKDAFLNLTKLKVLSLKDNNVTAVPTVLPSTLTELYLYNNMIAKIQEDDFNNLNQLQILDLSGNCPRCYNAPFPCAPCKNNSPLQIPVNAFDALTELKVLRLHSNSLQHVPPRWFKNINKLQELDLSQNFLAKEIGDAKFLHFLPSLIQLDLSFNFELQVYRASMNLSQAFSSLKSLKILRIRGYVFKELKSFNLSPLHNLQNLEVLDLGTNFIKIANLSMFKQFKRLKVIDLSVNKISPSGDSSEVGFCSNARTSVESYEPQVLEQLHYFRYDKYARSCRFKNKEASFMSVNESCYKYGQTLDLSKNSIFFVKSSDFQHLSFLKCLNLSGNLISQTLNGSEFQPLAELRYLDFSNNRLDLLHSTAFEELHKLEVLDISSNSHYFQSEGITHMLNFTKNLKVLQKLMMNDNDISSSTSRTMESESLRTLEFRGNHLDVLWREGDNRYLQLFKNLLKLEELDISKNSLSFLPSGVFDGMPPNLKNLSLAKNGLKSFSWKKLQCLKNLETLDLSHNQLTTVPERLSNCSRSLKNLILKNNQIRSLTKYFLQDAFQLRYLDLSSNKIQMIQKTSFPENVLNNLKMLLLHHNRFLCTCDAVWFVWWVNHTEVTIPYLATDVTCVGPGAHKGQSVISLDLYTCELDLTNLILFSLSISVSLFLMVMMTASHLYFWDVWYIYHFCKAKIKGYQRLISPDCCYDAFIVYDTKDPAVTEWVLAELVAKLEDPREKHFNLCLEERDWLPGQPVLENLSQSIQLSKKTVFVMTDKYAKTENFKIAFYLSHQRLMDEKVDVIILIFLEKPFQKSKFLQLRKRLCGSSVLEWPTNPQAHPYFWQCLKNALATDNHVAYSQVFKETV
human TLR8, sequence (Q9NR97 27-1041): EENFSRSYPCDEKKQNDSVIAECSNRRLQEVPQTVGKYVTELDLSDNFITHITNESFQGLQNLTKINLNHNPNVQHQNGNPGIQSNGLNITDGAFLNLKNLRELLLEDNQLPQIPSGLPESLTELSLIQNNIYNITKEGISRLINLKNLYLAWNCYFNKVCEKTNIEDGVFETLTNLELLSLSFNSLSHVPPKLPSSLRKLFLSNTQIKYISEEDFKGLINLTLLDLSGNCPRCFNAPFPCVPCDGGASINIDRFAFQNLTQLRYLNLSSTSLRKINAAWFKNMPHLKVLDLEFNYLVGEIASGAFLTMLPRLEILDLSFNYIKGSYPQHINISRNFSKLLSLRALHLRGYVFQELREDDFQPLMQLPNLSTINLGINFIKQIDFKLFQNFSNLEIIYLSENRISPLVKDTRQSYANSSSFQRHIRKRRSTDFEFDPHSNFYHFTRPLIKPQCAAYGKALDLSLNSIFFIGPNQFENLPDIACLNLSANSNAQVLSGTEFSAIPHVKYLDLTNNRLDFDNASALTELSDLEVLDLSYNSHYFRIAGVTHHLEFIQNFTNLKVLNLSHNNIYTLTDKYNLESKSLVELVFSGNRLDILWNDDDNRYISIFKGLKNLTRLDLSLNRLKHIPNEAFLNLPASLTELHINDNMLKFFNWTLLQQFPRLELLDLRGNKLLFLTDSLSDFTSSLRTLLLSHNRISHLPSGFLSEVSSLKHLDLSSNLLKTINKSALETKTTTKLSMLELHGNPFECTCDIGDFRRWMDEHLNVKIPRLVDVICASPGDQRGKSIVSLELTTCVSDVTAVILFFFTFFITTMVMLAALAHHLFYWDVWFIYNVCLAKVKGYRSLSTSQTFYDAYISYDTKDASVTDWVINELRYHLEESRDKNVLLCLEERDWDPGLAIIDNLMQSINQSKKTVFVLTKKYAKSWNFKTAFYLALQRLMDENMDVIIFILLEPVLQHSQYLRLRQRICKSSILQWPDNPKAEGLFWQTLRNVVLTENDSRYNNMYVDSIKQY
human TLR9, sequence (Q9NR96 26-1032): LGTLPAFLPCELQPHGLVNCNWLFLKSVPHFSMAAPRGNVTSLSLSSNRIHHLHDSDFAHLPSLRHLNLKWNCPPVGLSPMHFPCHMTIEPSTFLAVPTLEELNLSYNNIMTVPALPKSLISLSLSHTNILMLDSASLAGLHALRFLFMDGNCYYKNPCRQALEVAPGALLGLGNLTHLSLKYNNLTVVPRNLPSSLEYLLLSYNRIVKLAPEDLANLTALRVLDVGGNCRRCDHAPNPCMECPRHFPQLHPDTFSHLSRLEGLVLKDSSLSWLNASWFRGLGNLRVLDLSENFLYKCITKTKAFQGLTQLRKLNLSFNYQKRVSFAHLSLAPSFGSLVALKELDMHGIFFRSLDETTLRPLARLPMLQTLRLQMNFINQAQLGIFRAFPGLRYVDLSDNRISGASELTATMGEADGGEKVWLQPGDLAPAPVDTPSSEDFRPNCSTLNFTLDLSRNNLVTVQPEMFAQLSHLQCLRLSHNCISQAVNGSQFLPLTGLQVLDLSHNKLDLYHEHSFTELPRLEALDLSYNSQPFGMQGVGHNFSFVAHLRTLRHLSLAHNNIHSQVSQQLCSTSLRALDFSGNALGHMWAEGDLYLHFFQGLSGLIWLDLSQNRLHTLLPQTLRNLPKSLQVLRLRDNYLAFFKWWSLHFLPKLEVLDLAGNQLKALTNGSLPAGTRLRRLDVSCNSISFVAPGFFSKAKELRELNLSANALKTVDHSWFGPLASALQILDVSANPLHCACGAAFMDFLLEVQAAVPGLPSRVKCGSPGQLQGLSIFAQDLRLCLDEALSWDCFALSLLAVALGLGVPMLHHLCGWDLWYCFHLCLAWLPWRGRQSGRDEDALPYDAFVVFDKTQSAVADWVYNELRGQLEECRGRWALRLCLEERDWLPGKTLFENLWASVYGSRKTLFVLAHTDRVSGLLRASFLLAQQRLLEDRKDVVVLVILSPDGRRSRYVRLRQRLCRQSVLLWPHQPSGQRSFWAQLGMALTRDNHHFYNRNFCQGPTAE
Procedure for human TLR7: TLR7/8/9 Inhibition Reporter Assays
Briefly, cells are seeded into Greiner 384 well plates (15000 cells per well for TLR7, 20,000 for TLR8 and 25,000 for TLR9) and then treated with test compounds in DMSO to yield a final dose response concentration range of 0.05 nM-50 μM. […] After a 22 hour incubation at 37° C., 5% CO2, SEAP levels are determined with the addition of HEK-Blue™ Detection reagent (Invivogen), a cell culture medium that allows for detection of SEAP, according to manufacturer's specifications. The percent inhibition is determined as the % reduction in the HEK-Blue signal present in wells treated with agonist plus DMSO alone compared to wells treated with a known inhibitor.

As for `Cc1cc(-c2[nH]c3ccc(C4CCN(C5CCNC(C)C5)CC4)cc3c2C(C)C)ccn1` (stereo not drawn) [Example 708, 3-isopropyl-5-(2′-methyl-[1,4′-bipiperidin]-4-yl)-2-(2-methylpyridin-4-yl)-1H-indole], the pIC50 on human TLR9 (setting [1]) was 6.31; at human TLR8 (setting [2]) it was 8.20; against human TLR7 (setting [3]), 8.09.

For the compound `Cc1cc(-c2[nH]c3ccc(C4CCN(C(=O)CN5CCCC(F)C5)CC4)cc3c2C(C)C)cc(C)n1` (stereo not drawn) [Example 363, 1-(4-(2-(2,6-dimethylpyridin-4-yl)-3-isopropyl-1H-indol-5-yl)piperidin-1-yl)-2-(3-fluoropiperidin-1-yl)ethan-1-one], the results for the pIC50 at human TLR9 (setting [1]), on human TLR8 (setting [2]) and against human TLR7 (setting [3]) were 5.74, 7.47 and 8.08, respectively.

With `CCC(CC)NCC(=O)N1CCC(c2ccc3[nH]c(-c4cc(C)nc(C)c4)c(C(C)C)c3c2)CC1` [Example 345, 1-(4-(2-(2,6-dimethylpyridin-4-yl)-3-isopropyl-1H-indol-5-yl)piperidin-1-yl)-2-(pentan-3-ylamino)ethan-1-one], the results for the pIC50 at human TLR9 (setting [1]), at human TLR8 (setting [2]) and at human TLR7 (setting [3]) were 6.26, 7.47 and 7.91, respectively.

In the case of `Cc1cc(-c2[nH]c3ccc(C4CCN(C(=O)C5CCN(C(C)C)CC5)CC4)cc3c2C(C)C)cc(C)n1` [Example 497, (4-(2-(2,6-dimethylpyridin-4-yl)-3-isopropyl-1H-indol-5-yl)piperidin-1-yl)(1-isopropylpiperidin-4-yl)methanone], the pIC50 on human TLR9 (setting [1]) is 6.58; on human TLR8 (setting [2]), 7.88; at human TLR7 (setting [3]), 8.57.

As for `CCc1c(-c2cc(C)nc(C)c2)[nH]c2ccc(C3CCNCC3)cc12` [Example 2, 2-(2,6-dimethylpyridin-4-yl)-3-ethyl-5-(piperidin-4-yl)-1H-indole], the pIC50 on human TLR9 (setting [1]) is 6.61; on human TLR8 (setting [2]) it was 7.95; against human TLR7 (setting [3]), 8.33.

For the compound `Cc1cc(-c2[nH]c3ccc(C4CCN(C(=O)CNC5CCOC5)CC4)cc3c2C(C)C)cc(C)n1` (stereo not drawn) [Example 387, 1-(4-(2-(2,6-dimethylpyridin-4-yl)-3-isopropyl-1H-indol-5-yl)piperidin-1-yl)-2-((tetrahydrofuran-3-yl)amino)ethan-1-one], the pIC50 is 6.04 at human TLR9 (setting [1]), 7.88 on human TLR8 (setting [2]) and 9.22 on human TLR7 (setting [3]).

Regarding `Cc1cc(-c2[nH]c3ccc(C4CCN(CC(=O)NCCC(C)O)CC4)cc3c2C(C)C)cc(C)n1` (stereo not drawn) [Example 262, 2-(4-(2-(2,6-dimethylpyridin-4-yl)-3-isopropyl-1H-indol-5-yl)piperidin-1-yl)-N-(3-hydroxybutyl)acetamide], the figures for the pIC50 on human TLR9 (setting [1]), at human TLR8 (setting [2]) and at human TLR7 (setting [3]) were 6.15, 8.22 and 8.70, respectively.

Regarding `Cc1cc(-c2[nH]c3ccc(C4CCN(C(=O)CN(C(C)C)C(C)C)CC4)cc3c2C(C)C)cc(C)n1` [Example 153, 2-(diisopropylamino)-1-(4-(2-(2,6-dimethylpyridin-4-yl)-3-isopropyl-1H-indol-5-yl)piperidin-1-yl)ethan-1-one], the pIC50 at human TLR9 (setting [1]) is 6.17; at human TLR8 (setting [2]), 7.59; against human TLR7 (setting [3]), 8.00.

Take `Cc1cc(-c2[nH]c3ccc(C4CCN(C(=O)C5CCOC5)CC4)cc3c2C(C)C)ccn1` (stereo not drawn) [Example 599, (4-(3-isopropyl-2-(2-methylpyridin-4-yl)-1H-indol-5-yl)piperidin-1-yl)(tetrahydrofuran-3-yl)methanone]: the figures for the pIC50 on human TLR9 (setting [1]), at human TLR8 (setting [2]) and against human TLR7 (setting [3]) were 4.36, 6.75 and 7.73, respectively.

As for `CNCCN1CCC(c2ccc3[nH]c(-c4ccnc(C)c4)c(C)c3c2)CC1` [Example 815, N-methyl-2-(4-(3-methyl-2-(2-methylpyridin-4-yl)-1H-indol-5-yl)piperidin-1-yl)ethan-1-amine], the pIC50 on human TLR9 (read-out: TLR9 IC50, HEK-Blue cells, ODN2006 5 nM) is 6.50; on human TLR8 (read-out: TLR8 IC50, HEK-Blue cells, R848 15.9 μM), 7.13; on human TLR7 (HEK-Blue cells, gardiquimod 7.5 μM), 6.91.

On to `Cc1cc(-c2[nH]c3ccc(C4CCN(C(=O)[C@@H](N)CCCCN)CC4)cc3c2C(C)C)ccn1` [Example 579, (S)-2,6-diamino-1-(4-(3-isopropyl-2-(2-methylpyridin-4-yl)-1H-indol-5-yl)piperidin-1-yl)hexan-1-one], for which the pIC50 on human TLR9 (setting [1]) was 5.36; on human TLR8 (setting [2]) it was 7.01; on human TLR7 (setting [3]), 6.70.

Consider `Cc1cc(-c2[nH]c3ccc(C4CCN(C(=O)CN(C)C)CC4)cc3c2C(C)C)c(F)cn1` [Example 586, 2-(dimethylamino)-1-(4-(2-(5-fluoro-2-methylpyridin-4-yl)-3-isopropyl-1H-indol-5-yl)piperidin-1-yl)ethan-1-one], for which the pIC50 on human TLR9 (setting [1]) is 5.52; at human TLR8 (setting [2]) it was 8.21; against human TLR7 (setting [3]), 8.59.

As for `CCN(CC)CC(=O)N1CCC(c2ccc3[nH]c(-c4cc(C)nc(C)c4)c(C(C)C)c3c2)CC1` [Example 99, 2-(diethylamino)-1-(4-(2-(2,6-dimethylpyridin-4-yl)-3-isopropyl-1H-indol-5-yl)piperidin-1-yl)ethan-1-one], the values for the pIC50 on human TLR9 (setting [1]), at human TLR8 (setting [2]) and against human TLR7 (setting [3]) were 6.30, 7.89 and 8.51, respectively.

`COc1cc(-c2[nH]c3ccc(C4CCN(C)CC4)cc3c2C(C)C)ccn1` [Example 638, 3-isopropyl-2-(2-methoxypyridin-4-yl)-5-(1-methylpiperidin-4-yl)-1H-indole]: the pIC50 at human TLR9 (setting [1]) is 5.48; at human TLR8 (setting [2]) it was 7.26; against human TLR7 (setting [3]) it was 7.81.

`CC(=O)Nc1cnc(C)cc1-c1[nH]c2ccc(C3CCNCC3)cc2c1C(C)C` [Example 34, N-(4-(3-isopropyl-5-(piperidin-4-yl)-1H-indol-2-yl)-6-methylpyridin-3-yl)acetamide]: the pIC50 on human TLR9 (setting [1]) is 5.34; on human TLR8 (setting [2]), 6.80; at human TLR7 (setting [3]) it was 5.90.

With `Cc1cc(-c2[nH]c3ccc(C4CCN(C(=O)CCN(C)C)CC4)cc3c2C(C)C)cc(C)n1` [Example 97, 3-(dimethylamino)-1-(4-(2-(2,6-dimethylpyridin-4-yl)-3-isopropyl-1H-indol-5-yl)piperidin-1-yl)propan-1-one], the pIC50 on human TLR9 (setting [1]) was 6.40; at human TLR8 (setting [2]) it was 8.23; at human TLR7 (setting [3]), 8.89.

In the case of `Cc1cc(-c2[nH]c3ccc(C4CCN(Cc5ccon5)CC4)cc3c2C(C)C)cc(C)n1` [Example 432, 3-((4-(2-(2,6-dimethylpyridin-4-yl)-3-isopropyl-1H-indol-5-yl)piperidin-1-yl)methyl)isoxazole], the pIC50 is 6.19 at human TLR9 (setting [1]), 8.06 at human TLR8 (setting [2]) and 8.25 at human TLR7 (setting [3]).

Consider `COCCNC(=O)CN1CCC(c2ccc3[nH]c(-c4cc(C)nc(C)c4)c(C(C)C)c3c2)CC1` [Example 231, 2-(4-(2-(2,6-dimethylpyridin-4-yl)-3-isopropyl-1H-indol-5-yl)piperidin-1-yl)-N-(2-methoxyethyl)acetamide], for which the values for the pIC50 at human TLR9 (setting [1]), on human TLR8 (setting [2]) and against human TLR7 (setting [3]) were 5.95, 8.00 and 8.07, respectively.

Consider `COc1cc(-c2[nH]c3ccc(C4CCN(CC(F)(F)F)CC4)cc3c2C(C)C)ccn1` [Example 639, 3-isopropyl-2-(2-methoxypyridin-4-yl)-5-(1-(2,2,2-trifluoroethyl)piperidin-4-yl)-1H-indole], for which the figures for the pIC50 at human TLR9 (setting [1]), at human TLR8 (setting [2]) and against human TLR7 (setting [3]) were 4.71, 4.87 and 5.51, respectively.

`Cc1cc(-c2[nH]c3ccc(C4CCN(CC(=O)N5CCCCC5)CC4)cc3c2C(C)C)cc(C)n1` [Example 241, 2-(4-(2-(2,6-dimethylpyridin-4-yl)-3-isopropyl-1H-indol-5-yl)piperidin-1-yl)-1-(piperidin-1-yl)ethan-1-one]: the pIC50 was 6.35 on human TLR9 (setting [1]), 7.97 at human TLR8 (setting [2]) and 8.19 at human TLR7 (setting [3]).

As to `Cc1cc(-c2[nH]c3ccc(C4CCN(Cc5ccn[nH]5)CC4)cc3c2C(C)C)cc(C)n1` [Example 441, 5-(1-((1H-pyrazol-5-yl)methyl)piperidin-4-yl)-2-(2,6-dimethylpyridin-4-yl)-3-isopropyl-1H-indole], the pIC50 at human TLR9 (setting [1]) is 6.52; on human TLR8 (setting [2]), 8.77; against human TLR7 (setting [3]), 8.80.

`Cc1cc(-c2[nH]c3ccc(C4CCNCC4)cc3c2C(C)C)cc(C)[n+]1[O-]` [Example 56, 2-(2,6-dimethyl-1-(l1-oxidanyl)-1l4-pyridin-4-yl)-3-isopropyl-5-(piperidin-4-yl)-1H-indole]: the pIC50 was 6.09 at human TLR9 (setting [1]), 7.62 on human TLR8 (setting [2]) and 8.34 at human TLR7 (setting [3]).

As for `Cc1cc(-c2[nH]c3ccc(C4CCN(Cc5ncco5)CC4)cc3c2C(C)C)cc(C)n1` [Example 449, 2-((4-(2-(2,6-dimethylpyridin-4-yl)-3-isopropyl-1H-indol-5-yl)piperidin-1-yl)methyl)oxazole], the pIC50 on human TLR9 (setting [1]) was 5.53; at human TLR8 (setting [2]), 7.84; at human TLR7 (setting [3]) it was 7.87.

Consider `Cc1cc(-c2[nH]c3ccc(C4CCN(CC(=O)N(C)CC(C)C)CC4)cc3c2C(C)C)cc(C)n1` [Example 245, 2-(4-(2-(2,6-dimethylpyridin-4-yl)-3-isopropyl-1H-indol-5-yl)piperidin-1-yl)-N-isobutyl-N-methylacetamide], for which the pIC50 is 6.02 on human TLR9 (setting [1]), 7.49 at human TLR8 (setting [2]) and 8.02 against human TLR7 (setting [3]).

For the compound `CC(C)c1c(-c2c(Cl)cncc2Cl)[nH]c2ccc(C3CCNCC3)cc12` [Example 20, 2-(3,5-dichloropyridin-4-yl)-3-isopropyl-5-(piperidin-4-yl)-1H-indole], the pIC50 at human TLR9 (setting [1]) was 5.11; on human TLR8 (setting [2]), 6.89; at human TLR7 (setting [3]), 5.78.

`Cc1cc(-c2[nH]c3ccc(C4CCN(CC(=O)N5CCS(=O)(=O)CC5)CC4)cc3c2C(C)C)cc(C)n1` [Example 281, 2-(4-(2-(2,6-dimethylpyridin-4-yl)-3-isopropyl-1H-indol-5-yl)piperidin-1-yl)-1-(1,1-dioxidothiomorpholino)ethan-1-one]: the negative-log IC50 (pIC50) at human TLR9 (setting [1]) was 6.89; on human TLR8 (setting [2]) it was 8.70; at human TLR7 (setting [3]) it was 8.92.

For orientation: pIC50 means the negative decadic logarithm of the IC50, by convention in mol/L.
